Results as given in ChEMBL document CHEMBL1157030 (Eur J Med Chem, 2010).

Legend:
Acetylcholinesterase = Acetylcholinesterase (Electrophorus electricus, UniProt O42275)
Description: inhibition of electric eel AChE by Ellman's method

Cholinesterase = Cholinesterase (Equus caballus, UniProt P81908)
Chain of Cholinesterase (P81908 whole entry): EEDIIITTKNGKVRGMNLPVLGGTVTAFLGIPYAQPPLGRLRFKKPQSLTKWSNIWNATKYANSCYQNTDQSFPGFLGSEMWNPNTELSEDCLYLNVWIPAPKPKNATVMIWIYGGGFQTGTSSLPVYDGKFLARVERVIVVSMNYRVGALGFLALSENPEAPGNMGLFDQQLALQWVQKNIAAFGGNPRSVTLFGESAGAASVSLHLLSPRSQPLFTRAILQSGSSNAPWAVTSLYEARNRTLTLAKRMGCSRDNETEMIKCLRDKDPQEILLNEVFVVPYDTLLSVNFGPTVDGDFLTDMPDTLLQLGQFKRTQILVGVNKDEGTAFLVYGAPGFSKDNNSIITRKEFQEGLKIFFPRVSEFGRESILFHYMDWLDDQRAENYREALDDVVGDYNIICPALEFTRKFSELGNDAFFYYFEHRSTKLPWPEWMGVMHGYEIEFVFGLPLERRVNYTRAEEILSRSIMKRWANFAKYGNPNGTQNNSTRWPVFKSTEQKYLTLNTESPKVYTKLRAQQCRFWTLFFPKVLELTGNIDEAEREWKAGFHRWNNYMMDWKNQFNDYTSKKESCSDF
Description: inhibition of equine serum BuChE by Ellman's method

Chain of Acetylcholinesterase (O42275 whole entry): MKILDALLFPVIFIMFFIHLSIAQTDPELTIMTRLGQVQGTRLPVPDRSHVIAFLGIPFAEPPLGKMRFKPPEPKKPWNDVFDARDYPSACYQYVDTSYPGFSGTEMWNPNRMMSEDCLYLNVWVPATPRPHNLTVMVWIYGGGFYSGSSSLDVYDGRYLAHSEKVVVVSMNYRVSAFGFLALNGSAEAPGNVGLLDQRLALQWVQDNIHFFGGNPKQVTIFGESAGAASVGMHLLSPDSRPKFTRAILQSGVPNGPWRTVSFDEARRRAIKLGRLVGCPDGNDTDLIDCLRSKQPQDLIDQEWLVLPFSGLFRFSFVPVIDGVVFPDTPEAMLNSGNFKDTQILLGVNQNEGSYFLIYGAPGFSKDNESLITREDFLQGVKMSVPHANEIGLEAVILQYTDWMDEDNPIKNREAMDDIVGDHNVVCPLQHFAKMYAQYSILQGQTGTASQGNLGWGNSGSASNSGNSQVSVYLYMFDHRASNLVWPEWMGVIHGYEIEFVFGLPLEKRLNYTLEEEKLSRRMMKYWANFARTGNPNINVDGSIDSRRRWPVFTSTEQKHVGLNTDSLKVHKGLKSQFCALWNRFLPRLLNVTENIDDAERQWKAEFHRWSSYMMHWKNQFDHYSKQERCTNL

| SMILES | IC50 (Acetylcholinesterase) [nM] | IC50 (Cholinesterase) [nM] |
| --- | --- | --- |
| O=C(CCN1CCCC1)Nc1ccc2nc3n(c(=O)c2c1)CCc1c-3[nH]c2ccccc12 | 29.2 | 845 |
| O=C(CN1CCCC1)Nc1ccc2ncn(CCc3c[nH]c4ccccc34)c(=O)c2c1 | 4040 | 25900 |
| O=C(CN1CCCCC1)Nc1ccc2ncn(CCc3c[nH]c4ccccc34)c(=O)c2c1 | 1520 | 13000 |
| CCN(CC)CC(=O)Nc1ccc2nc3n(c(=O)c2c1)CCc1c-3[nH]c2ccccc12 | 372 | 17600 |
| O=C(CCN1CCCCC1)Nc1ccc2nc3n(c(=O)c2c1)CCc1c-3[nH]c2ccccc12 | 21.4 | 2110 |
| CCN(CC)CC(=O)Nc1ccc2nc3c4[nH]c5ccccc5c4ccn3c(=O)c2c1 | 57.1 | 11400 |
| O=C(CN1CCCC1)Nc1ccc2nc3c4[nH]c5ccccc5c4ccn3c(=O)c2c1 | 23.6 | 428 |
| O=C(CN1CCCC1)Nc1ccc2nc3n(c(=O)c2c1)CCc1c-3[nH]c2ccccc12 | 131 | 696 |
| O=C(CN1CCCCC1)Nc1ccc2nc3n(c(=O)c2c1)CCc1c-3[nH]c2ccccc12 | 111 | 33000 |
| CCN(CC)CCC(=O)Nc1ccc2nc3n(c(=O)c2c1)CCc1c-3[nH]c2ccccc12 | 80.2 | 2850 |
| O=C(CN1CCCCC1)Nc1ccc2nc3c4[nH]c5ccccc5c4ccn3c(=O)c2c1 | 10.1 | 5430 |
| CCN(CC)CC(=O)Nc1ccc2ncn(CCc3c[nH]c4ccccc34)c(=O)c2c1 | 7680 | 41600 |
